Test results taken from ChEMBL document CHEMBL3046832, “Synthesis of some sulfonamides, disubstituted sulfonylureas or thioureas and some structurally related variants. A class of promising antitumor agents” (2007).

What was measured:
Format in all cases: functional
SF-268 [1] = test: Cytotoxicity against Homo sapiens (human) SF268 cells after 48 hr by SRB assay; conditions: SF-268, 48 h
SW-620 = test: Cytotoxicity against Homo sapiens (human) SW620 cells after 48 hr by SRB assay; conditions: SW-620, 48 h
NCI-H460 [2] = test: Cytotoxicity against Homo sapiens (human) NCI-H460 cells after 48 hr by SRB assay; conditions: NCI-H460, 48 h
786-0 = test: Cytotoxicity against Homo sapiens (human) 786-0 cells after 48 hr by SRB assay; conditions: 786-0, 48 h
BT-549 = test: Cytotoxicity against Homo sapiens (human) BT549 cells after 48 hr by SRB assay; conditions: BT-549, 48 h
MCF7 [3] = test: Cytotoxicity against Homo sapiens (human) MCF7 cells assessed as cellular growth after 48 hr by Alamar blue assay; set-up: concentration or dose not given beside the values
SK-MEL-2 = test: Cytotoxicity against Homo sapiens (human) SK-MEL-2 cells after 48 hr by SRB assay; conditions: SK-MEL-2, 48 h
[4] = Cytotoxicity against Homo sapiens (human) CNS cancer cells after 48 hr by SRB assay; conditions: Cancer cell lines
KM12 = test: Cytotoxicity against Homo sapiens (human) KM12 cells after 48 hr by SRB assay; conditions: KM12, 48 h
DU-145 = test: Cytotoxicity against Homo sapiens (human) DU145 cells after 48 hr by SRB assay; conditions: DU-145, 48 h
SN12C = test: Cytotoxicity against Homo sapiens (human) SN12C cells after 48 hr by SRB assay
T47D = test: Cytotoxicity against Homo sapiens (human) T47D cells after 48 hr by SRB assay
UACC-257 = test: Cytotoxicity against Homo sapiens (human) UACC257 cells after 48 hr by SRB assay; conditions: UACC-257, 48 h
UO-31 = test: Cytotoxicity against Homo sapiens (human) UO31 cells after 48 hr by SRB assay; conditions: UO-31, 48 h
SK-OV-3 = test: Cytotoxicity against Homo sapiens (human) SKOV3 cells after 48 hr by SRB assay; conditions: SK-OV-3, 48 h
OVCAR-8 = test: Cytotoxicity against Homo sapiens (human) OVCAR8 cells after 48 hr by SRB assay; conditions: OVCAR-8, 48 h
UACC-62 = test: Cytotoxicity against Homo sapiens (human) UACC62 cells after 48 hr by SRB assay; conditions: UACC-62, 48 h
SNB-19 = test: Cytotoxicity against Homo sapiens (human) SNB19 cells after 48 hr by SRB assay; conditions: SNB-19, 48 h
SK-MEL-28 = test: Cytotoxicity against Homo sapiens (human) SK-MEL-28 cells after 48 hr by SRB assay; conditions: SK-MEL-28, 48 h
Hs-578T = test: Cytotoxicity against Homo sapiens (human) Hs578T cells after 48 hr by SRB assay
SF-268 [5] = test: Cytotoxicity against Homo sapiens (human) SF268 cells assessed as cellular growth after 48 hr by Alamar blue assay; set-up: concentration or dose not given beside the values
CAKI-1 = test: Cytotoxicity against Homo sapiens (human) Caki1 cells after 48 hr by SRB assay; conditions: CAKI-1, 48 h
[6] = Cytotoxicity against Homo sapiens (human) breast cancer cells after 48 hr by SRB assay; conditions: Cancer cell lines
[7] = Cytotoxicity against Homo sapiens (human) leukemia cells after 48 hr by SRB assay; conditions: Leukemia cell
[8] = Cytotoxicity against Homo sapiens (human) renal cancer cells after 48 hr by SRB assay; conditions: Cancer cell lines
OVCAR-4 = test: Cytotoxicity against Homo sapiens (human) OVCAR4 cells after 48 hr by SRB assay; conditions: OVCAR-4, 48 h
ACHN = test: Cytotoxicity against Homo sapiens (human) ACHN cells after 48 hr by SRB assay
HCT-15 = test: Cytotoxicity against Homo sapiens (human) HCT15 cells after 48 hr by SRB assay; conditions: HCT-15, 48 h
NCI-H522 = test: Cytotoxicity against Homo sapiens (human) NCI-H522 cells after 48 hr by SRB assay; conditions: NCI-H522, 48 h
NCI-H460 [9] = test: Cytotoxicity against Homo sapiens (human) NCI-H460 cells assessed as cellular growth after 48 hr by Alamar blue assay; set-up: concentration or dose not given beside the values
CCRF-CEM = test: Cytotoxicity against Homo sapiens (human) CCRF-CEM cells after 48 hr by SRB assay
OVCAR-5 = test: Cytotoxicity against Homo sapiens (human) OVCAR5 cells after 48 hr by SRB assay; conditions: OVCAR-5, 48 h
MDA-MB-435 = test: Cytotoxicity against Homo sapiens (human) MDA-MB-435 cells after 48 hr by SRB assay; conditions: MDA-MB-435, 48 h
[10] = Cytotoxicity against Homo sapiens (human) melanoma cells after 48 hr by SRB assay; conditions: Melanoma cell
SF-539 = test: Cytotoxicity against Homo sapiens (human) SF539 cells after 48 hr by SRB assay; conditions: SF-539, 48 h
HT-29 = test: Cytotoxicity against Homo sapiens (human) HT-29 cells after 48 hr by SRB assay; conditions: HT-29, 48 h
RXF 393 = test: Cytotoxicity against Homo sapiens (human) RXF393 cells after 48 hr by SRB assay; conditions: RXF 393, 48 h
MCF7 [11] = test: Cytotoxicity against Homo sapiens (human) MCF7 cells after 48 hr by SRB assay; conditions: MCF7, 48 h
SF-295 = test: Cytotoxicity against Homo sapiens (human) SF295 cells after 48 hr by SRB assay; conditions: SF-295, 48 h
HOP-62 = test: Cytotoxicity against Homo sapiens (human) HOP62 cells after 48 hr by SRB assay; conditions: HOP-62, 48 h
EKVX = test: Cytotoxicity against Homo sapiens (human) EKVX cells after 48 hr by SRB assay
COLO 205 = test: Cytotoxicity against Homo sapiens (human) COLO205 cells after 48 hr by SRB assay; conditions: COLO 205, 48 h
[12] = Cytotoxicity against Homo sapiens (human) NCI-H322 cells after 48 hr by SRB assay; conditions: NCI-H322, 48 h
[13] = Cytotoxicity against Homo sapiens (human) NCI-ADR-RES cells after 48 hr by SRB assay
RPMI-8226 = test: Cytotoxicity against Homo sapiens (human) RPMI8226 cells after 48 hr by SRB assay; conditions: RPMI-8226, 48 h
[14] = Cytotoxicity against Homo sapiens (human) ovarian cancer cells after 48 hr by SRB assay; conditions: Cancer cell lines
HOP-92 = test: Cytotoxicity against Homo sapiens (human) HOP92 cells after 48 hr by SRB assay; conditions: HOP-92, 48 h

For O=C(NC1CCCCC1)NS(=O)(=O)c1ccc(-n2nc3c(c2-c2cccs2)Cc2ccccc2-3)cc1, the GI50 (SF-268 [1]) was > 100 µM, the GI50 (SW-620) was 20.7 µM and the GI50 (NCI-H460 [2]) was 93 µM. For the same compound, the GI50 (786-0) was 32.3 µM, the GI50 (BT-549) was 33.7 µM and the Activity (MCF7 [3]) was “<=32%”. For the same compound, the GI50 (SK-MEL-2) was 23.6 µM, the GI50 [4] was 49.5 µM and the TGI [4] was 93.6 µM. It also gave a GI50 (KM12) of 34.9 µM, a GI50 (DU-145) of 31.9 µM and a GI50 (SN12C) of 21.5 µM. For the same compound, the GI50 (T47D) was 39.7 µM, the GI50 (UACC-257) was 24.8 µM and the GI50 (UO-31) was 15.4 µM. The GI50 (SK-OV-3) was 44.5 µM, the GI50 (OVCAR-8) was 25.3 µM and the GI50 (UACC-62) was 19.3 µM. It also gave a GI50 (SNB-19) of 56.8 µM, a GI50 (SK-MEL-28) of 34.2 µM and a GI50 (Hs-578T) of 37.5 µM. For the same compound, the Activity (SF-268 [5]) was “<=32%”, the GI50 (CAKI-1) was 16 µM and the GI50 [6] was 41.7 µM. The TGI [6] was 94.2 µM, the GI50 [7] was 17.9 µM and the TGI [7] was 26.6 µM. For the same compound, the GI50 [8] was 21.3 µM, the TGI [8] was 40.1 µM and the GI50 (OVCAR-4) was 27 µM. It also gave a GI50 (ACHN) of 17.3 µM, a GI50 (HCT-15) of 17.8 µM and a GI50 (NCI-H522) of 12.3 µM. The Activity (NCI-H460 [9]) was “<=32%”, the GI50 (CCRF-CEM) was 1.15 µM and the GI50 (OVCAR-5) was 26.6 µM. For the same compound, the GI50 (MDA-MB-435) was 32.5 µM, the GI50 [10] was 27.2 µM and the TGI [10] was 53.4 µM. The GI50 (SF-539) was 27.6 µM, the GI50 (HT-29) was 34.3 µM and the GI50 (RXF 393) was 29.2 µM. The GI50 (MCF7 [11]) was > 100 µM, the GI50 (SF-295) was 34.9 µM and the GI50 (HOP-62) was > 100 µM. It also gave a GI50 (EKVX) of 28.6 µM, a GI50 (COLO 205) of 23.3 µM and a GI50 [12] of 37.9 µM. It also gave a GI50 [13] of 20.4 µM, a GI50 (RPMI-8226) of 10.7 µM and a GI50 [14] of 25.3 µM. It also gave a TGI [14] of 80.3 µM and a GI50 (HOP-92) of 14.3 µM.

O=C(Nc1ccccc1)NS(=O)(=O)c1ccc(-n2nc3c(c2-c2cccs2)Cc2ccccc2-3)cc1 gave a GI50 (SF-268 [1]) of 26 µM, a GI50 (SW-620) of 22.9 µM and a GI50 (NCI-H460 [2]) of 18.9 µM. For the same compound, the GI50 (786-0) was 17.6 µM, the GI50 (BT-549) was 24.1 µM and the Activity (MCF7 [3]) was “<=32%”. For the same compound, the GI50 (SK-MEL-2) was 70.1 µM, the GI50 [4] was 44.4 µM and the TGI [4] was 80.7 µM. For the same compound, the GI50 (KM12) was 8.08 µM, the GI50 (DU-145) was 28.6 µM and the GI50 (SN12C) was 19.9 µM. For the same compound, the GI50 (T47D) was 37.9 µM, the GI50 (UACC-257) was 17.7 µM and the GI50 (UO-31) was 32.2 µM. It also gave a GI50 (SK-OV-3) of 60.8 µM, a GI50 (OVCAR-8) of 28.3 µM and a GI50 (UACC-62) of 15.8 µM. The GI50 (SNB-19) was > 100 µM, the GI50 (SK-MEL-28) was 50.2 µM and the GI50 (Hs-578T) was 16.8 µM. The Activity (SF-268 [5]) was “<=32%”, the GI50 (CAKI-1) was 11.1 µM and the GI50 [6] was 20.8 µM. The TGI [6] was 56.5 µM, the GI50 [7] was 12.1 µM and the TGI [7] was 85.6 µM. For the same compound, the GI50 [8] was 29.6 µM, the TGI [8] was 42.5 µM and the GI50 (OVCAR-4) was 34.9 µM. For the same compound, the GI50 (ACHN) was 17.6 µM, the GI50 (HCT-15) was 16.9 µM and the GI50 (NCI-H522) was 31.5 µM. For the same compound, the Activity (NCI-H460 [9]) was “<=32%”, the GI50 (CCRF-CEM) was 13.6 µM and the GI50 (OVCAR-5) was 20.1 µM. It also gave a GI50 (MDA-MB-435) of 22.1 µM, a GI50 [10] of 29.5 µM and a TGI [10] of 43 µM. For the same compound, the GI50 (SF-539) was 25 µM, the GI50 (HT-29) was 26.7 µM and the GI50 (RXF 393) was 85.3 µM. The GI50 (MCF7 [11]) was 13.4 µM, the GI50 (SF-295) was 21.9 µM and the GI50 (HOP-62) was 18.1 µM. For the same compound, the GI50 (EKVX) was 26.1 µM, the GI50 (COLO 205) was 44 µM and the GI50 [12] was 4.5 µM. It also gave a GI50 [13] of 16.1 µM, a GI50 (RPMI-8226) of 5.49 µM and a GI50 [14] of 31.2 µM. The TGI [14] was 98.3 µM and the GI50 (HOP-92) was 12.3 µM.
